Measured values taken from patent US11168078B2, “Sulfoximine, sulfonimidamide, sulfondiimine and diimidosulfonamide compounds as inhibitors of indoleamine 2,3-dioxygenase” (Shanghai Fochon Pharmaceutical Co., Ltd., priority 2016, dated 2021).

Tested on: not listed separately
Experiment: Rat PK
Format: in vivo
Conditions: po, male SD rats, 5 mg/kg p.o., suspended in 0.5% methylcellulose in water, plasma
Procedure: Each test compounds was suspended in 0.5% methylcellulose in water.
Grouping male SD rats was administered with test compound at a dose of 5 mg/kg by oral. After administering, blood samples were collected at time points of 0.50, 1.0, 2.0, 4.0, 6.0, 8.0 and 24.0 h. Standard curve was plotted based on concentrations of the samples in a suitable range, and the concentration of test compounds in plasma samples were determined by using LC-MS/MS. Pharmacokinetic parameters were calculated according to plasma concentration-time curve by Phoenix WinNonLin 6.1 software.
`CS(C)(=O)=NCCNc1nonc1/C(=N/O)Nc1ccc(F)c(Br)c1` [Example 1, (Z)—N-(3-bromo-4-fluorophenyl)-4-((2-((dimethyl(oxo)-λ^6-sulfanylidene)amino)ethyl)amino)-N′-hydroxy-1,2,5-oxadiazole-3-carboximidamide] showed an AUC(0-inf) of 4.03 µg·h/mL, an AUC(0-t) of 3.84 µg·h/mL and a Cmax of 1.5 µg/mL. For the same compound, the half-life was 3.83 h.
Compound `CCS(=N)(=O)NCCNc1nonc1C(=NO)Nc1ccc(F)c(Br)c1` (stereo not drawn) [Example 7, (Z)—N-(3-bromo-4-fluorophenyl)-4-((2-(ethylsulfonoimidamido)ethyl)amino)-N′-hydroxy-1,2,5-oxadiazole-3-carboximidamide] has an AUC(0-inf) of 1.45 µg·h/mL, an AUC(0-t) of 1.44 µg·h/mL and a Cmax of 0.496 µg/mL. The half-life was 3.47 h.
`CS(C)(=O)=NCCNc1nonc1/C(=N/O)Nc1ccc(F)c(Cl)c1` [Example 28, (Z)-N-(3-chloro-4-fluorophenyl)-4-((2-((dimethyl(oxo)-λ^6-sulfanylidene)amino)ethyl)amino)-N′-hydroxy-1,2,5-oxadiazole-3-carboximidamide] showed an AUC(0-inf) of 1.12 µg·h/mL, an AUC(0-t) of 1.1 µg·h/mL and a Cmax of 0.469 µg/mL. The half-life was 1.19 h.
In the case of `NS(=O)(=O)NCCNc1nonc1C(=NO)Nc1ccc(F)c(Br)c1` [Reference Compound 1, (Z)—N-(3-bromo-4-fluorophenyl)-N′-hydroxy-4-((2-(sulfamoylamino)ethyl)amino)-1,2,5-oxadiazole-3-carboximidamide, reference compound], the AUC(0-inf) is reported as 0.924 µg·h/mL, the AUC(0-t) is reported as 0.88 µg·h/mL and the Cmax is reported as 0.169 µg/mL. The half-life was 2.48 h.

Biological target: T1, IDO (Homo sapiens, UniProt P14902)
T1 construct: endogenous in cells; host or cells: HeLa cells stimulated with recombinant human interferon-gamma
T1 sequence (P14902 whole entry): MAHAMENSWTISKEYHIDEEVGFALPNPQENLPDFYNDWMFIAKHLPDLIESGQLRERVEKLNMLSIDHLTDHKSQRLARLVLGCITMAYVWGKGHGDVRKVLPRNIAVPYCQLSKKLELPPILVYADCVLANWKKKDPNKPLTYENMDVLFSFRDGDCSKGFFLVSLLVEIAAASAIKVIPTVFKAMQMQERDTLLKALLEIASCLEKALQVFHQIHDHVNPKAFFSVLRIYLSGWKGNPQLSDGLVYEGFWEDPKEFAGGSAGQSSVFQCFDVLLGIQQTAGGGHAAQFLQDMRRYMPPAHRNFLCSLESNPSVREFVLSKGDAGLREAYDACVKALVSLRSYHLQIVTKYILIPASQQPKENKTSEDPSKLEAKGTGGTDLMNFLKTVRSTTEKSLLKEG
Experiment: IDO Cell-Based LC/MS Assay
Conditions: Hela cells, 100 ng/mL recombinant human interferon-gamma, 20 hours, LC/MS readout
From the text: IDO Cell-Based LC/MS Assay
Materials: RPMI 1640 (phenol red free) (Invitrogen Cat. No. 11835030), Fetal Bovine Serum (Invitrogen Cat. No. 10099141), Penicillin-Streptomycin (Invitrogen Gibco Cat. No. 15140-122), recombinant human interferon-gamma (R&D system, Cat. No. 285-IF-100), 5% (w/v) trichloroacetic acid (Alfa Aesar Cat. No. All 156), DMSO (Sigma, Cat. No. D2650), 96 wells_compound plate (Axygen, Cat. No. WIPP02280), 96 wells_assay plate (Greiner, Cat. No. 655090)
The concentrations of test compounds varied from 5 μM to 0.76 nM with 3-fold dilution, 9 points, in duplicates.
Hela cells were seeded at 40,000 cells per well with RPMI/phenol red free media containing 10% FBS in a 96-well tissue culture plate. After adding compound to cells, 100 ng/mL of recombinant human interferon-gamma was added to activate IDO signaling. The cells were incubated for 20 hours in 37° C. incubator with 5% CO2. Compound treatment was stopped by adding 5% trichloroacetic acid. Subsequently, the cell plate was further incubated at 50° C. for 30 minutes. After precipitation, the supernatant was collected and measured by triple quadrupole mass spectrometer (AB Sciex 4000), coupled with HPLC Shimadzu EC 20 AD and autosampler CTC PAL. Curves are fit by XLFIT5 as % inhibition vs. log [compound concentration] using a 4 parameters logistic model 205.
(§1) Select compounds prepared as described above were assayed according to the biological procedures described herein.
Compound `CS(C)(=O)=NCCNc1nonc1/C(=N/O)Nc1ccc(F)c(Br)c1` [Example 1, (Z)—N-(3-bromo-4-fluorophenyl)-4-((2-((dimethyl(oxo)-λ^6-sulfanylidene)amino)ethyl)amino)-N′-hydroxy-1,2,5-oxadiazole-3-carboximidamide] has an IC50 of 0.054 µM.
Work on `CCS(=O)(CC)=NCCNc1nonc1/C(=N/O)Nc1ccc(F)c(Br)c1` [Example 2, (Z)—N-(3-bromo-4-fluorophenyl)-4-((2-((diethyl(oxo)-λ^6-sulfanylidene)amino)ethyl)amino)-N′-hydroxy-1,2,5-oxadiazole-3-carboximidamide] yielded an IC50 of 0.27 µM.
With `O=S1(=NCCNc2nonc2/C(=N/O)Nc2ccc(F)c(Br)c2)CCOCC1` [Example 3, (Z)—N-(3-bromo-4-fluorophenyl)-N′-hydroxy-4-((2-((4-oxido-1,4λ^6-oxathian-4-ylidene)amino)ethyl)amino)-1,2,5-oxadiazole-3-carboximidamide] the IC50 was 0.153 µM.
`O=S1(=NCCNc2nonc2/C(=N/O)Nc2ccc(F)c(Br)c2)CCCCC1` [Example 4, (Z)—N-(3-bromo-4-fluorophenyl)-N′-hydroxy-4-((2-((1-oxidotetrahydro-2H-1λ^6-thiopyran-1-ylidene)amino)ethyl)amino)-1,2,5-oxadiazole-3-carboximidamide] showed an IC50 of 0.477 µM.
For `O=S1(=NCCNc2nonc2/C(=N/O)Nc2ccc(F)c(Br)c2)CCCC1` [Example 5, (Z)—N-(3-bromo-4-fluorophenyl)-N′-hydroxy-4-((2-((1-oxidotetrahydro-1λ^6-thiophen-1-ylidene)amino)ethyl)amino)-1,2,5-oxadiazole-3-carboximidamide], the IC50 was 0.195 µM.
For `CS(=N)(=O)NCCNc1nonc1C(=NO)Nc1ccc(F)c(Br)c1` (stereo not drawn) [Example 6, (Z)—N-(3-bromo-4-fluorophenyl)-N′-hydroxy-4-((2-(methylsulfonoimidamido)ethyl)amino)-1,2,5-oxadiazole-3-carboximidamide], the IC50 was 0.0637 µM.
Work on `CCS(=N)(=O)NCCNc1nonc1C(=NO)Nc1ccc(F)c(Br)c1` (stereo not drawn) [Example 7, (Z)—N-(3-bromo-4-fluorophenyl)-4-((2-(ethylsulfonoimidamido)ethyl)amino)-N′-hydroxy-1,2,5-oxadiazole-3-carboximidamide] yielded an IC50 of 0.0066 µM.
Compound `CS(=N)(=O)NCCCNc1nonc1C(=NO)Nc1ccc(F)c(Br)c1` (stereo not drawn) [Example 8, (Z)—N-(3-bromo-4-fluorophenyl)-N′-hydroxy-4-((3-(methylsulfonoimidamido)propyl)amino)-1,2,5-oxadiazole-3-carboximidamide] has an IC50 of 0.0186 µM.
Compound `CC(CNc1nonc1/C(=N/O)Nc1ccc(F)c(Br)c1)NS(C)(=N)=O` (stereo not drawn) [Example 9, (Z)—N-(3-bromo-4-fluorophenyl)-N′-hydroxy-4-((2-(methylsulfonoimidamido)propyl)amino)-1,2,5-oxadiazole-3-carboximidamide] has an IC50 of 0.123 µM.
In the case of `CC(CNS(C)(=N)=O)Nc1nonc1/C(=N/O)Nc1ccc(F)c(Br)c1` (stereo not drawn) [Example 10, (Z)—N-(3-bromo-4-fluorophenyl)-N′-hydroxy-4-((1-(methylsulfonoimidamido)propan-2-yl)amino)-1,2,5-oxadiazole-3-carboximidamide], the IC50 is reported as 0.244 µM.
`CN=S(C)(=O)NCCNc1nonc1C(=NO)Nc1ccc(F)c(Br)c1` (stereo not drawn) [Example 11, (Z)—N-(3-bromo-4-fluorophenyl)-N′-hydroxy-4-((2-(N′-methylmethylsulfonoamidimidamido)ethyl)amino)-1,2,5-oxadiazole-3-carboximidamide] gave an IC50 of 0.04 µM.
Work on `CS(=N)(=O)NCCNc1nonc1/C(=N/O)Nc1ccc(F)c(Cl)c1` (stereo not drawn) [Example 12, (Z)—N-(3-chloro-4-fluorophenyl)-N′-hydroxy-4-((2-(methylsulfonoimidamido)-ethyl)amino)-1,2,5-oxadiazole-3-carboximidamide] yielded an IC50 of 0.0123 µM.
Compound `CS(=N)(=O)NCCNc1nonc1/C(=N/O)Nc1ccc(F)c(C#N)c1` (stereo not drawn) [Example 13, (Z)—N-(3-cyano-4-fluorophenyl)-N′-hydroxy-4-((2-(methylsulfonoimidamido)-ethyl)amino)-1,2,5-oxadiazole-3-carboximidamide] has an IC50 of 0.311 µM.
`CS(=N)(=O)NCCNc1nonc1/C(=N/O)Nc1ccc(F)c(C(F)(F)F)c1` (stereo not drawn) [Example 14, (Z)—N-(4-fluoro-3-(trifluoromethyl)phenyl)-N′-hydroxy-4-((2-(methylsulfonoamidimidamido)ethyl)amino)-1,2,5-oxadiazole-3-carboximidamide] showed an IC50 of 0.0201 µM.
With `CS(=N)(=O)NCCNc1nonc1/C(=N/O)Nc1cccc(C(F)(F)F)c1` (stereo not drawn) [Example 15, (Z)—N′-hydroxy-4-((2-(methylsulfonoamidimidamido)ethyl)amino)-N-(3-(trifluoromethyl)phenyl)-1,2,5-oxadiazole-3-carboximidamide] the IC50 was 0.0543 µM.
`CCS(=N)(=O)NCCNc1nonc1/C(=N/O)Nc1cccc(C(F)(F)F)c1` (stereo not drawn) [Example 16, (Z)-4-((2-(ethylsulfonoimidamido)ethyl)amino)-N′-hydroxy-N-(3-(trifluoromethyl)phenyl)-1,2,5-oxadiazole-3-carboximidamide] gave an IC50 of 0.298 µM.

Biological target: T1, IDO
Experiment: IDO Cell-Based NEK Green Assay (NFK Green, N-formyl kynurenine level)
Conditions: Hela cells, 1 mM L-Tryptophan, 100 ng/mL recombinant human interferon-gamma, 2 days, NFK Green fluorescence
Procedure: IDO Cell-Based NEK Green Assay
Materials: RPMI 1640 (phenol red free) (Invitrogen Cat. No. 11835030), Fetal Bovine Serum (Invitrogen Cat. No. 10099141), Penicillin-Streptomycin (Invitrogen Gibco Cat. No. 15140-122), Cellular assay kit (NTRC, Cat. No. NTRC-GSCell-1K), DMSO (Sigma, Cat. No. D2650), 384 wells_compound plate (Greiner, Cat. No. 781280), 384 wells_assay plate (Greiner, Cat. No. 781091)
The concentrations of test compounds varied from 5 μM to 0.76 nM with 3-fold dilution, 10 points, in duplicates.
Hela cells were seeded at 8,000 cells per well with RPMI/phenol red free media containing 10% FBS in a 384-well tissue culture plate. Mixture of compounds and 1 mM L-Tryptophan were added to cells; and then the recombinant human interferon-gamma was added at the final concentration of 100 ng/mL to activate IDO signaling. The cells were incubated for 2 days in 37° C. incubator with 5% CO2. After that, NFK Green was used to detect the N-formyl kynurenine level by following the commercial kit instruction. The fluorescent signal was measured by Envision plate Reader (excitation, 400/25; emission, 510/20). Curves are fit by XLFIT5 as % inhibition vs. log [compound concentration] using a 4 parameters logistic model 205.
as §1
For `CS(C)(=O)=NCCNc1nonc1/C(=N/O)Nc1ccc(F)c(Cl)c1` [Example 28, (Z)-N-(3-chloro-4-fluorophenyl)-4-((2-((dimethyl(oxo)-λ^6-sulfanylidene)amino)ethyl)amino)-N′-hydroxy-1,2,5-oxadiazole-3-carboximidamide], the IC50 was 0.0145 µM.
